In patent publication US20220362215A1, “THERAPEUTIC OR PROPHYLACTIC AGENT FOR CHRONIC KIDNEY DISEASE CONTAINING PYRAZOLE-AMIDE COMPOUND” (JAPAN TOBACCO INC., priority 2018, published 2022):

Key:
[1] = test system: saline-loaded SDT-fatty rats; 5/6 nephrectomized rats; test: disease model animals exhibiting CKD-like renal disorder and decreased renal function (saline-loaded SDT-fatty rat model; 5/6 nephrectomized rat model); assay type: in vivo; conditions: oral administration in feed
Experimental: Experimental Example 1: Suppressive effects of compound A on urinary protein excretion and renal disorder by oral administration of monohydrate of compound A in saline-loaded SDT-fatty rat model
In saline-loaded Spontaneously Diabetic Torii fatty (SDI-fatty) rats, suppressive effects of compound A on urinary protein excretion and renal disorder were evaluated. The evaluation was performed by reference to non-patent document 1. As the experiment animal, 6-week-old male SDI-fatty rats (CLEA Japan, Inc.) were used. A normal powder feed (CRF-1 powder, Oriental Yeast. Co., ltd.) containing 0.005 w/w % of a monohydrate of compound A as a free form of compound A was prepared. […]
For urine, after measuring the urine volume, the protein concentration in the urine was measured by the absorbance at wavelength 590 nm using a total protein quantification kit (TONEIN-TP, Otsuka Pharmaceutical Co., Ltd.). Amount of the urinary protein excretion (mg/6 hours) was calculated from the urine volume and protein concentration. […]
The mean and standard deviation of urinary protein excretion for each group were calculated, and the results thereof are shown in FIG. 1. […]
In 5/6 nephrectomized rats, suppressive effects of compound A on urinary protein excretion and renal disorder were evaluated. […]

[2] = test system: pyruvate dehydrogenase kinase (PDHK); conditions: as described in patent document 1 (WO 2014/142290); cited from earlier work

Compound: CC(C)(O)CCOc1cc(-c2cnn(C(C)(C)C(N)=O)c2)c2c(c1)[C@@](O)(C(F)(F)F)c1ccccc1-2 [compound A, 2-{4-[(9R)-9-hydroxy-2-(3-hydroxy-3-methylbutyloxy)-9-(trifluoromethyl)-9H-fluoren-4-yl]-1H-pyrazol-1-yl}-2-methylpropanamide]
- severity of the disease [1]: significantly reduces the severity of the disease
- pyruvate dehydrogenase kinase (PDHK) inhibitory activity [2]: inhibitory activity
